From BindingDB's records for doi:10.1016/j.bmc.2008.08.012 (Philipps University Marburg, 2008)
pIC50: −log10 of the molar value.

Tests used:
[1] = target: Pepsin A (Sus scrofa, UniProt P00791); assay: Enzyme Inhibition Assay; conditions: 25 °C
Procedure: (§1) Enzyme assay was performed at room temperature on a microplate reader (Safire2TM) using black 96-well microtiter plates purchased from Nunc. Inhibitors and substrates were previously dissolved in 4% DMSO. The hydrolysis of the substrates was recorded as increase in fluorescence intensity. IC50 values were generated by nonlinear regression analysis from plots of vi/v0 versus inhibitor concentration, in which vi is the velocity in presence, and v0 the velocity in the absence of an inhibitor. The kinetic constants were determined by the method of Lineweaver and Burk, and Ki values were consecutively calculated from the following equation: Ki = IC50/[1 + (S/Km)]. The overall error of the assays is estimated to be +/-40%.

[2] = target: T1, Dimer of Gag-Pol polyprotein [501-599] (Human immunodeficiency virus 1, UniProt P03367); assay: Enzyme Inhibition Assay; conditions: pH 5.5; 23 °C
T1 construct: 501-599
Procedure: as §1

Sequence of Pepsin A (P00791 whole entry): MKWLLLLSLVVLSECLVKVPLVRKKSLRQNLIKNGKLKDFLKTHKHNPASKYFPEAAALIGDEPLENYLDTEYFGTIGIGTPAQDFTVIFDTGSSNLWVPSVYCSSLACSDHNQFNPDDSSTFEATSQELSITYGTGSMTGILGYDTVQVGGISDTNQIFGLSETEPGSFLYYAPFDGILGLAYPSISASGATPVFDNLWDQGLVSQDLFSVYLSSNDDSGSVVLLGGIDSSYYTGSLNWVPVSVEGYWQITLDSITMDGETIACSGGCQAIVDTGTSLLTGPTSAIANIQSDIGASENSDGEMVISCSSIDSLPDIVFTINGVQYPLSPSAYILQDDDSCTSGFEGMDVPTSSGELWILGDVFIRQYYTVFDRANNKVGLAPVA

SMILES	pIC50 [1]	pIC50 [2]
O=C(Cc1ccccc1)N(CCNCCN(Cc1ccccc1)C(=O)Cc1ccccc1)Cc1ccccc1 [carboxamide, 12a]	< 3.60	< 3.60
O=C(Cc1ccccc1)N(CCCNCCN(Cc1ccccc1)C(=O)Cc1ccccc1)Cc1ccccc1 [carboxamide, 12b]	< 3.60	< 3.60
O=C(Cc1ccccc1)N(CCCNCCCN(Cc1ccccc1)C(=O)Cc1ccccc1)Cc1ccccc1 [carboxamide, 12c]	< 3.60	< 3.60
O=S(=O)(c1ccccc1)N(CCCNCCCN(Cc1ccccc1)S(=O)(=O)c1ccccc1)Cc1ccccc1 [phenyl-substituted sulfonamides, 6c]	< 3.60	< 3.60
Nc1ccc(S(=O)(=O)N(CCCNCCN(Cc2ccccc2)S(=O)(=O)c2ccc(N)cc2)Cc2ccccc2)cc1 [phenyl-substituted sulfonamides, 6e]	< 3.60	< 3.60
Nc1ccc(S(=O)(=O)N(CCCNCCCN(Cc2ccccc2)S(=O)(=O)c2ccc(N)cc2)Cc2ccccc2)cc1 [phenyl-substituted sulfonamides, 6f]		< 3.60
